According to PMC5440646, “T Cell Costimulation by CD6 Is Dependent on Bivalent Binding of a GADS/SLP-76 Complex” (Molecular and Cellular Biology, 2017):
Read-outs that look alike come from different tables or passages of the source. Where a SMILES comes first, the peptide text is derived from it. Where no end group is shown, it is not given here. [ ]: non-standard residue; d: D form. The star is where a group is joined. Biotin = O=C1N[C@H]2[C@H](CS[C@H]2CCCCC(=O)*)N1; pY = N[C@@H](Cc1ccc(OP(=O)(O)O)cc1)C(=O)O

What was measured:
TSAd SH2 = biological target: T1, TSAd SH2 (Homo sapiens, UniProt Q9NP31); experiment: SPR equilibrium binding of recombinant TSAd SH2 domain to immobilized phosphopeptides; conditions: equilibrium binding of soluble recombinant SH2 domain to immobilized biotinylated peptide, 37°C, 1:1 Langmuir, range, n = 3 (CD28 pYMN: n = 1)
T1 construct: Recombinant His-tagged SH2 domains of GADS, GRB2, and TSAd in the popinF vector; His tag; made in house; host or cells: Escherichia coli Rosetta(DE3)/pLysS
T1 sequence (Q9NP31 95-186 limits assumed): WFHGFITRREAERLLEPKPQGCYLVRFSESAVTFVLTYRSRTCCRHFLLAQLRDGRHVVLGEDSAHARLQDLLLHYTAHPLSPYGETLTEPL
Description: (§1) We measured the direct binding of purified monomeric SH2 domains to the phosphorylated CD6 Y629 peptide at physiological temperature using surface plasmon resonance (SPR) (Fig. 1). The sensorgram traces for all three proteins binding to phosphorylated CD6 Y629 are consistent with monomeric binding of all three proteins (Fig. 1, right). Equilibrium binding data were plotted to determine dissociation constants (KDs) (Fig. 1, left). GADS and GRB2 bound with similar KDs to phosphorylated Y629, at 1 to 3 μM and 2 to 4 μM, respectively (Fig. 1A and B and Table 2). As an indication that the recombinant proteins were active, the SH2 domains of GADS and GRB2 bound to a phosphorylated CD28-derived peptide containing the YXN motif with an affinity (KD = 2 to 3 μM) similar to that determined by previous measurements (Fig. 1 and Table 2) ([14]).
Recombinant His-tagged SH2 domains of GADS, GRB2, and TSAd in the popinF vector (provided by Louis Bird, Oxford Protein Production Facility, Harwell, Oxfordshire, UK) and SLP-76 ([1]) were expressed in Escherichia coli Rosetta(DE3)/pLysS competent cells (Novagen) and purified by nickel affinity chromatography and size exclusion chromatography. […] Background signals of proteins over a streptavidin-coated flow cell were subtracted, equilibrium binding data were plotted, and KDs for 1:1 Langmuir binding were determined.

GADS SH2 = biological target: T2, GADS SH2 (Homo sapiens, UniProt O75791); experiment: SPR equilibrium binding of recombinant GADS SH2 domain to immobilized phosphopeptides; conditions: 37°C
T2 construct: Recombinant His-tagged SH2 domains of GADS, GRB2, and TSAd in the popinF vector; His tag; made in house; host or cells: Escherichia coli Rosetta(DE3)/pLysS
T2 sequence (O75791 58-149 limits assumed): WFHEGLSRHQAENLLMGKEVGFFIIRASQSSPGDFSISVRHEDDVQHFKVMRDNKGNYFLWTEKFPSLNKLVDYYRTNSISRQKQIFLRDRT
Description: as §1
(§2) Recombinant His-tagged SH2 domains of GADS, GRB2, and TSAd in the popinF vector (provided by Louis Bird, Oxford Protein Production Facility, Harwell, Oxfordshire, UK) and SLP-76 ([1]) were expressed in Escherichia coli Rosetta(DE3)/pLysS competent cells (Novagen) and purified by nickel affinity chromatography and size exclusion chromatography. Peptides for CD6 pY662 (biotin-[…]pYDDISAA), CD6 Y629 (biotin-[…]), CD6 pY629 (biotin-SSGEWpYQNFQP), and CD28 pYMNM (biotin-LLHSDpYMNMTP) were immobilized at ∼25 response units on streptavidin-coated CM5 chips in a BIAcore 3000 machine (Peptide Protein Research Ltd., Hampshire, UK) ([1], [14]). Long CD6 peptides (biotin-[…]pYDDISAA) phosphorylated at Y629 (pY629), Y662 (pY662), or both (pY629 pY662) were immobilized at ∼50 response units. Serially diluted proteins were injected over the chip at 10 μl/min at 37°C. Background signals of proteins over a streptavidin-coated flow cell were subtracted, equilibrium binding data were plotted, and KDs for 1:1 Langmuir binding were determined.

GRB2 SH2 = biological target: T3, GRB2 SH2 (Homo sapiens, UniProt P62993); experiment: SPR equilibrium binding of recombinant GRB2 SH2 domain to immobilized phosphopeptides; conditions: 37°C
T3 construct: Recombinant His-tagged SH2 domains of GADS, GRB2, and TSAd in the popinF vector; His tag; made in house; host or cells: Escherichia coli Rosetta(DE3)/pLysS
T3 sequence (P62993 60-152 limits assumed): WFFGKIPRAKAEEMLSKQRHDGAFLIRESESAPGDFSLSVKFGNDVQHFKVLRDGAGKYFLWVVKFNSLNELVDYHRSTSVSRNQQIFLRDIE
Description: as §1, §2

SLP-76 SH2 = biological target: T4, SLP-76 SH2 (Homo sapiens, UniProt Q13094); experiment: SPR equilibrium binding of recombinant SLP-76 SH2 domain to immobilized long CD6 peptides; conditions: 37°C; for Kd: equilibrium binding of soluble recombinant SH2 domain to immobilized long CD6 peptides (~50 RU), range, n = 3
T4 construct: 2-fold serial dilutions of GADS (10 μM) (A) and SLP-76 (20 μM) (B) SH2 domains over the long CD6 peptides; His tag; made in house; host or cells: Escherichia coli Rosetta(DE3)/pLysS
T4 sequence (Q13094 422-530 limits assumed): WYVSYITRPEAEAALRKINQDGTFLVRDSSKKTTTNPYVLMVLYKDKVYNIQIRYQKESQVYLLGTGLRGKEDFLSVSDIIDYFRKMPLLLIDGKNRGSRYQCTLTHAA
Description: SPR analysis with long peptides containing both Y629 and Y662 phosphorylated at either or both tyrosine residues confirmed the specificity of the SH2 domains of GADS and SLP-76 for the CD6 Y629 and Y662 motifs, respectively (Fig. 3 and Table 3). […] Coprecipitation of GADS with CD6 was not observed in Jurkat (J14) cells, which lack SLP-76 (data not shown). GADS and SLP-76 interact with each other independently of their SH2 domains. A GADS SH3 domain binds to a proline-rich region of SLP-76 ([15]). This configuration means that both SH2 domains are available for bivalent binding to two phosphorylated tyrosine residues in close proximity. CD6 Y629 is the closest tyrosine residue to CD6 Y662 in the linear amino acid sequence of the cytoplasmic region.
as §2

[1] = equilibrium binding of soluble recombinant SH2 domain to immobilized biotinylated peptide (~25 RU on streptavidin-coated CM5 chip), 1:1 Langmuir, range, n = 3, read-out: KD (μM) GADS SH2
[2] = fitted equilibrium curve of the experiment shown, 2-fold serial dilutions of GADS SH2 from 35 μM over immobilized peptide, streptavidin background subtracted, read-out: KD, GADS SH2 (Fig. 1A)
[3] = equilibrium binding of soluble recombinant SH2 domain to immobilized biotinylated peptide (~25 RU on streptavidin-coated CM5 chip), 1:1 Langmuir, range, n = 3, read-out: KD (μM) GRB2 SH2
[4] = equilibrium binding of soluble recombinant SH2 domain to immobilized long CD6 peptides (~50 RU), range, n = 3, read-out: KD (μM) (range) GADS SH2

Kd (GADS SH2; [1]) [µM]	Kd (GADS SH2; [2]) [µM]	Kd (GRB2 SH2; [3]) [µM]	Kd (SLP-76 SH2) [µM]	Kd (GADS SH2; [4]) [µM]	Compound	further results
1 to 3	1	2 to 4			NC(=O)CC[C@H](NC(=O)[C@H](Cc1ccc(OP(=O)(O)O)cc1)NC(=O)[C@H](Cc1c[nH]c2ccccc12)NC(=O)[C@H](CCC(=O)O)NC(=O)CNC(=O)[C@H](CO)NC(=O)[C@H](CO)NC(=O)CCCC[C@@H]1SC[C@@H]2NC(=O)N[C@@H]21)C(=O)N[C@@H](CC(N)=O)C(=O)N[C@@H](Cc1ccccc1)C(=O)N[C@@H](CCC(N)=O)C(=O)N1CCC[C@H]1C(=O)O [CD6 pY629] (Biotin-SSGEW[pY]QNFQP-OH)	Kd (TSAd SH2): 26 to 58 µM; Kd (GRB2 SH2; fitted equilibrium curve of the experiment shown, 2-fold serial dilutions of GRB2 SH2 from 106 μM over immobilized peptide, streptavidin background subtracted, read-out: KD, GRB2 SH2 (Fig. 1B)): 2 µM
2 to 3	2	2 to 3			CSCC[C@H](NC(=O)[C@H](Cc1ccc(OP(=O)(O)O)cc1)NC(=O)[C@H](CC(=O)O)NC(=O)[C@H](CO)NC(=O)[C@H](Cc1c[nH]cn1)NC(=O)[C@H](CC(C)C)NC(=O)[C@H](CC(C)C)NC(=O)CCCC[C@@H]1SC[C@@H]2NC(=O)N[C@@H]21)C(=O)N[C@@H](CC(N)=O)C(=O)N[C@@H](CCSC)C(=O)N[C@H](C(=O)N1CCC[C@H]1C(=O)O)[C@@H](C)O [CD28 pYMN, reference compound] (Biotin-LLHSD[pY]MNMTP-OH)	
			0.3 to 2		Biotin-STSSGEWYQNFQPPPQPPSEEQFGCPGSPSPQPDSTDNDD[pY]DDISAA [pY662]	
				0.2 to 0.6	Biotin-STSSGEW[pY]QNFQPPPQPPSEEQFGCPGSPSPQPDSTDNDDYDDISAA [pY629]	binding of the SLP-76 SH2 domain (SLP-76 SH2; long CD6 peptides, data not shown): no binding
			0.3 to 2	0.1 to 2	Biotin-STSSGEW[pY]QNFQPPPQPPSEEQFGCPGSPSPQPDSTDNDD[pY]DDISAA [pY629 pY662]	
